# In US20080275032A1, “Pyridazinone compounds” (priority 2006, published 2008):
# Target: HCV NS5B polymerase (Hepatitis C virus genotype 1b, UniProt P26663)
# Experiment: biochemical
# Conditions: HCV polymerase inhibition, 50 nM enzyme, 2 h at room temperature, FlashPlate [α-33P]GTP incorporation
# Sequence of HCV NS5B polymerase (P26663 2420-3010): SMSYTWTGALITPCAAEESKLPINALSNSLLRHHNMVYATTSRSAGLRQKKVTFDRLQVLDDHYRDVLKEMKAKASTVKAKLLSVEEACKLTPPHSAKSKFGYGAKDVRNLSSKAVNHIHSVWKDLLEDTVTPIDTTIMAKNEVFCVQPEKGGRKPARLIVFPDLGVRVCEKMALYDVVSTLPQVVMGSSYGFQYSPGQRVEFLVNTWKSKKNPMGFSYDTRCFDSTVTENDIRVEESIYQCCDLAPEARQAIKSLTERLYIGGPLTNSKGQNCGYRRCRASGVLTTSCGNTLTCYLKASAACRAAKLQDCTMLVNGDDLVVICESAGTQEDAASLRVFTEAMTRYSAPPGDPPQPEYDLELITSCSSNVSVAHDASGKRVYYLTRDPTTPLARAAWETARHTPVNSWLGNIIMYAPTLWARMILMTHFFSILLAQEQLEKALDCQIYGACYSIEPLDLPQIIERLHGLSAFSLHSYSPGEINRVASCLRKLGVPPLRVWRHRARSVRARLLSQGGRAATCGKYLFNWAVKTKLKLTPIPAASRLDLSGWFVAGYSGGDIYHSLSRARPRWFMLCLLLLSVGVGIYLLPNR
row,Compound,IC50
1,"CC(C)CCn1nc(CCC2OCCCO2)c(O)c(C2=Nc3ccc(NS(C)(=O)=O)cc3S(=O)(=O)N2)c1=O [N-{3-[6-(2-[1,3]Dioxan-2-yl-ethyl)-5-hydroxy-2-(3-methyl-butyl)-3-oxo-2,3-dihydro-pyridazin-4-yl]-1,1-dioxo-1,2-dihydro-1λ^6-benzo[1,2,4]thiadiazin-7-yl}-methanesulfonamide]",100 to 1000 nM
2,"CC(C)CCn1nc(CC2CCC2)c(O)c(C2=NS(=O)(=O)c3cc(NS(C)(=O)=O)ccc3N2)c1=O [N-{3-[6-Cyclobutylmethyl-5-hydroxy-2-(3-methyl-butyl)-3-oxo-2,3-dihydro-pyridazin-4-yl]-1,1-dioxo-1,2-dihydro-1λ^6-bnezo[1,2,4]thiadiazin-7-yl}-methanesulfonamide]",100 to 1000 nM
3,"CC(C)CCn1nc(CC2=CCCC2)c(O)c(C2=NS(=O)(=O)c3cc(NS(C)(=O)=O)ccc3N2)c1=O [N-{3-[6-Cyclopent-1-enylmethyl-5-hydroxy-2-(3-methyl-butyl)-3-oxo-2,3-dihydro-pyridazin-4-yl]-1,1-dioxo-1,2-dihydro-1λ^6-benzo[1,2,4]thiadiazin-7-yl}-methanesulfonamide]",100 to 1000 nM
4,"CC(C)(C)c1nn(Cc2ccc(F)c(Cl)c2)c(=O)c(C2=Nc3ccc(NS(C)(=O)=O)cc3S(=O)(=O)N2)c1O [N-{3-[6-tert-Butyl-2-(3-chloro-4-fluoro-benzyl)-5-hydroxy-3-oxo-2,3-dihydro-pyridazin-4-yl]-1,1-dioxo-1,2-dihydro-1λ^6-benzo[1,2,4]thiadiazin-7-yl}-methanesulfonamide]",100 to 1000 nM
5,"CC(C)CCn1nc(-c2cccs2)c(O)c(C2=Nc3ccc(NC(=O)OC(C)C)cc3S(=O)(=O)N2)c1=O [{3-[5-Hydroxy-2-(3-methyl-butyl)-3-oxo-6-thiophen-2-yl-2,3-dihydro-pyridazin-4-yl]-1,1-dioxo-1,2-dihydro-1λ^6-benzo[1,2,4]thiadiazin-7-yl}-carbamic acid isopropyl ester]",1000 to 10000 nM

# Second part, the compound after the results:
row,IC50,Compound
1,< 100 nM,"CC(C)CCn1nc(C2=CCCC2)c(O)c(C2=NS(=O)(=O)c3cc(NS(C)(=O)=O)ccc3N2)c1=O [N-{3-[6-Cyclopent-1-enyl-5-hydroxy-2-(3-methyl-butyl)-3-oxo-2,3-dihydro-pyridazin-4-yl]-1,1-dioxo-1,2-dihydro-1λ^6-benzo[1,2,4]thiadiazin-7-yl}-methanesulfonamide]"
2,< 100 nM,"CCCS(=O)(=O)Nc1ccc2c(c1)S(=O)(=O)NC(c1c(O)c(-c3cncs3)nn(CCC(C)C)c1=O)=N2 [Propane-1-sulfonic acid {3-[5-hydroxy-2-(3-methyl-butyl)-3-oxo-6-thiazol-5-yl-2,3-dihydro-pyridazin-4-yl]-1,1-dioxo-1,2-dihydro-1λ^6-benzo[1,2,4]thiadiazin-7-yl}-amide]"
3,< 100 nM,"CCCS(=O)(=O)Nc1ccc2c(c1)S(=O)(=O)N=C(c1c(O)c(-c3cccs3)nn(CCC(C)C)c1=O)N2 [Propane-1-sulfonic acid {3-[5-hydroxy-2-(3-methyl-butyl)-3-oxo-6-thiophen-2-yl-2,3-dihydro-pyridazin-4-yl]-1,1-dioxo-1,2-dihydro-1λ^6-benzo[1,2,4]thiadiazin-7-yl}-amide]"
4,< 100 nM,"CC(C)S(=O)(=O)Nc1ccc2c(c1)S(=O)(=O)NC(c1c(O)c(-c3cccs3)nn(CCC3CC3)c1=O)=N2 [Propane-2-sulfonic acid {3-[2-(2-cyclopropyl-ethyl)-5-hydroxy-3-oxo-6-thiophen-2-yl-2,3-dihydro-pyridazin-4-yl]-1,1-dioxo-1,2-dihydro-1λ^6-benzo[1,2,4]thiadiazin-7-yl}-amide]"
5,< 100 nM,"CC(C)CCn1nc(-c2cncs2)c(O)c(C2=Nc3ccc(NS(=O)(=O)C(C)C)cc3S(=O)(=O)N2)c1=O [Propane-2-sulfonic acid {3-[5-hydroxy-2-(3-methyl-butyl)-3-oxo-6-thiazol-5-yl-2,3-dihydro-pyridazin-4-yl]-1,1-dioxo-1,2-dihydro-1λ^6-benzo[1,2,4]thiadiazin-7-yl}-amide]"
6,< 100 nM,"CC(C)CCn1nc(-c2cccs2)c(O)c(C2=NS(=O)(=O)c3cc(NS(=O)(=O)C(C)C)ccc3N2)c1=O [Propane-2-sulfonic acid {3-[5-hydroxy-2-(3-methyl-butyl)-3-oxo-6-thiophen-2-yl-2,3-dihydro-pyridazin-4-yl]-1,1-dioxo-1,2-dihydro-1λ^6-benzo[1,2,4]thiadiazin-7-yl}-amide]"
